Experimental data from PMC8305652, “Copper(II) Complexes Containing Natural Flavonoid Pomiferin Show Considerable In Vitro Cytotoxicity and Anti-inflammatory Effects” (International Journal of Molecular Sciences, 2021).

Experiments:
[1] = test system: caspases 3/7 in A2780 cells; assay: activation of caspases 3/7, flow cytometry; assay type: cell-based, human; settings: A2780, 15 µM, 24 h
Experimental: Both methods were performed according to the manufacturers’ protocols with 1 modification in the caspase induction assay, which was the use of the CellEvent^TM Caspase-3/7 Green Detection Reagent only for detection of Caspase-3/7 activation. […] After 24 h, the cells were washed once with PBS (0.1 M, pH 7.4), detached with trypsin (0.25% in ethylenediaminetetraacetic acid (EDTA), Sigma-Aldrich), resuspended in 500 µL of the culture medium and divided into 2 separate tubes, the first for apoptosis assay and the second one for caspase activation analysis. After staining with appropriate dyes, samples were analyzed on a BD FACSVerse flow cytometer (Becton Dickinson, Franklin Lakes, NJ, USA) in 3 separate experiments, while at least 10^4 events were recorded for each sample prepared in duplicate.

[2] = test system: HuCCA-1, KB, HeLa and T47D cell lines; parameters: method as in PMID 21922909; settings: 48 h incubation, range over cell lines; cited from earlier work
[3] = test system: caspase 3 (Casp-3) in THP-1 cells; assay: Western blotting of apoptosis-related proteins; assay type: cell-based, human; settings: THP-1, complexes 4 µM, 24 h, Western blot
Experimental: In addition to the above-mentioned methods, the Western blotting method was used to shed light on the mechanisms associated with caspase 3 activation in the THP-1 cells. Two and a half milliliters of floating THP-1 monocytes resuspended in a serum-free RPMI 1640 medium were seeded into 6-well plates at the concentration of 10^6 cells/mL. Two hours later, complexes 3 and 5 were added at the concentration level of 4 µM. After 24 h incubation, the cells were collected by centrifugation (3000 g/5 min/4 °C), washed by cold PBS and resuspended in an ice-cold lysis buffer (50 mM Tris-HCl pH 7.5, 1 mM EGTA, 1 mM EDTA, 1 mM sodium orthovanadate, 50 mM sodium fluoride, 5 mM sodium pyrophosphate, 270 mM sucrose) with Roche cOmplete protease inhibitors (Roche Diagnostics, Basel, Switzerland). The cell lysates were centrifuged at 3000 g/5 min/4 °C and supernatants were mixed with a 5x Laemmli buffer [containing 250 mM Tris-HCl pH 6.8, 10% (w/v) SDS, 30% (v/v) glycerol, 5% (v/v) β-mercaptoethanol, 0.04% (w/v) bromphenol blue] and incubated at 70 °C for 5 min. […] The membranes were incubated at 4 °C for 16 h with a primary anti-cleaved caspase 3 (p17) antibody at the dilution 1:1000 (Cell Signaling, Danvers, MA, USA; products No. 9664), and an Apoptosis WB Cocktail (Abcam, Cambridge, UK; product No. ab136812) at the dilution recommended by the provider to detect β-actin, cleaved poly-(ADP-ribose) polymerase (PARP) and pro-caspase 3. After washing in a TBST buffer, the secondary anti-rabbit IgG antibody (Sigma-Aldrich, product No. A0545) was diluted 1:2500 and applied to the membranes, which were then incubated for 1 h at the laboratory temperature (~22 °C). The amount of bound secondary antibody was determined using an ECL reagent (Bio-Rad, Hercules, CA, USA). Chemiluminescence was detected using a Syngene PXi4 chemiluminescence imaging system (Cambridge, UK).

Compound: CC(C)=CCc1c2c(c3occ(-c4ccc(O)c(O)c4)c(=O)c3c1[O-])C=CC(C)(C)O2.CO.O=[N+]([O-])[O-].[Cu+2].c1ccc(-c2ccnc3c2ccc2c(-c4ccccc4)ccnc23)cc1 [Complex 4, (3-(3,4-dihydroxyphenyl)-8,8-dimethyl-6-(3-methylbut-2-en-1-yl)-4H,8H-benzo[1,2-b:3,4-b′]dipyran-4-one-5-olato-κ^2O4:O5)(4,7-diphenyl-1,10-phenanthroline–κ^2N:N)copper(II) nitrate methanol solvate]
- activation of executioner caspases 3/7 [1]: significantly increase the antiproliferative effects over the free pomiferin and reference drug cisplatin

Compound: CC(C)=CCc1c2c(c3occ(-c4ccc(O)c(O)c4)c(=O)c3c1O)C=CC(C)(C)O2 [pomiferin, 3-(3,4-dihydroxyphenyl)-5-hydroxy-8,8-dimethyl-6-(3-methylbut-2-ene-1-yl)-4H,8H-benzo[1,2-b:3,4-b′]dipyran-4-one]
- ED50 [2]: 600 to 24000 nM

Compound: (3-(3,4-dihydroxyphenyl)-8,8-dimethyl-6-(3-methylbut-2-en-1-yl)-4H,8H-benzo[1,2-b:3,4-b′]dipyran-4-one-5-olato-κ^2O4:O5)(dipyrido[3,2-a:2′,3′-c]phenazine–κ^2N4:N5)copper(II) nitrate methanol solvate [Complex 5]
- levels of pro-caspase 3 (pro-Casp-3) [3]: dramatically decreased
- proteolytically activated Casp-3 (verified by cleaved PARP-1) ([3]; cisplatin 10 µM): only minor activity of Casp-3
